In US20260217701A1, “SELECTIVE BET INHIBITORS AND USES THEREOF” (Tay Therapeutics Limited, priority 2022, published 2026):
Several values for one entry are separate records, joined by “and”; a condition that tells them apart may be missing. Equal values may be shown once.

Tested on: collagen-induced arthritis
Assay: Collagen-induced arthritis (CIA) model: clinical scores and paw volume; as to Average animal paw volume percent change (%): reference of the scale not given here; as to animal paw volume percent change (%): reference of the scale not given here
Assay type: in vivo, Lewis rats
Settings: for Average animal paw volume / Average animal paw volume percent change (%) / Animal paw volume percent change (%): group 3 CIA + Dexamethasone; for Animal paw volume percent change (%) / clinical score left forelimb / clinical score left hind limb / clinical score right forelimb / clinical score right hind limb / clinical score, score (all limbs) / Animal paw volume: individual animals; for Overall Clinical Score: individual animals 1-8; for Animal paw volume: Group 3 (CIA + Dexamethasone)
[1] = group 3 CIA+ Dexamethasone, Day 18
[2] = group 3 CIA+ Dexamethasone, Day 19
[3] = group 3 CIA+ Dexamethasone, Day 20

C[C@@H]1C[C@H]2[C@@H]3CCC4=CC(=O)C=C[C@]4(C)[C@@]3(F)[C@@H](O)C[C@]2(C)[C@@]1(O)C(=O)CO [Dexamethasone, dexamethasone]
Average animal paw volume (Day 0, L paw): 1.33 mL
Average animal paw volume percent change (%) (Day 0, L paw): 0.00%
Animal paw volume percent change (%) (Day 0, L paw): 0.00%
Average animal paw volume (Day 0, R paw): 1.33 mL
Average animal paw volume percent change (%) (Day 0, R paw): 0.00%
Animal paw volume percent change (%) (Day 0, R paw): 0.00%
Average detailed clinical score, left forelimb (Day 0, CIA): 0.00
Average detailed clinical score, left hind limb (Day 0, CIA): 0.00
Average detailed clinical score, right forelimb (Day 0, CIA): 0.00
Average detailed clinical score, right hind limb (Day 0, CIA): 0.00
Average detailed clinical score, score (Day 0, CIA): 0.00
Average overall clinical score (Day 0, CIA): 0
clinical score left forelimb (Day 0, CIA): 0
clinical score left hind limb (Day 0, CIA): 0
clinical score right forelimb (Day 0, CIA): 0
clinical score right hind limb (Day 0, CIA): 0
clinical score, score (all limbs) (Day 0, CIA): 0
Overall Clinical Score (Day 0, CIA): 0
Animal paw volume (Day 0, L paw): 1.35 mL and 1.31 mL and 1.39 mL and 1.33 mL and 1.30 mL (2×) and 1.34 mL and 1.36 mL
Animal paw volume (Day 0, R paw): 1.34 mL and 1.30 mL (2×) and 1.38 mL and 1.35 mL and 1.29 mL and 1.36 mL and 1.37 mL
Average animal paw volume (Day 6, L paw): 1.29 mL
Average animal paw volume percent change (%) (Day 6, L paw): -3.37%
Animal paw volume percent change (%) (Day 6, L paw): −2.97% and −1.53% and −3.61% and −3.02% and −3.09% and −3.08% and −4.12% and 5.51%
Average animal paw volume (Day 6, R paw): 1.29 mL
Average animal paw volume percent change (%) (Day 6, R paw): -3.26%
Animal paw volume percent change (%) (Day 6, R paw): −3.00% and 1.16% and −2.91% and −3.72% and −1.56% and −2.70% and −5.90% and −5.13%
Average detailed clinical score, left forelimb (Day 6, CIA): 0.00
Average detailed clinical score, left hind limb (Day 6, CIA): 0.00
Average detailed clinical score, right forelimb (Day 6, CIA): 0.00
Average detailed clinical score, right hind limb (Day 6, CIA): 0.00
Average detailed clinical score, score (Day 6, CIA): 0.00
Average overall clinical score (Day 6, CIA): 0
clinical score left forelimb (Day 6, CIA): 0
clinical score left hind limb (Day 6, CIA): 0
clinical score right forelimb (Day 6, CIA): 0
clinical score right hind limb (Day 6, CIA): 0
clinical score, score (all limbs) (Day 6, CIA): 0
Overall Clinical Score (Day 6, CIA): 0
Animal paw volume (Day 6, L paw): 1.31 mL and 1.29 mL (3×) and 1.34 mL and 1.28 mL
Animal paw volume (Day 6, R paw): 1.30 mL (3×) and 1.28 mL (2×) and 1.34 mL and 1.27 mL
Average animal paw volume (Day 12, L paw): 1.27 mL
Average animal paw volume percent change (%) (Day 12, L paw): -4.94%
Animal paw volume percent change (%) (Day 12, L paw): −10.41% and −7.66% and −1.44% and −3.40% and −1.54% and −6.54% and −3.00% and −5.51%
Average animal paw volume percent change (%) (Day 12, R paw): -5.21%
Animal paw volume percent change (%) (Day 12, R paw): −6.74% and −3.09% and 0.73% and −7.43% and −1.56% and −9.27% and −7.01% and −5.86%
Average detailed clinical score, left forelimb (Day 12, CIA): 0.00
Average detailed clinical score, left hind limb (Day 12, CIA): 0.00
Average detailed clinical score, right forelimb (Day 12, CIA): 0.00
Average detailed clinical score, right hind limb (Day 12, CIA): 0.00
Average detailed clinical score, score (Day 12, CIA): 0.00
Average overall clinical score (Day 12, CIA): 0
clinical score left forelimb (Day 12, CIA): 0
clinical score left hind limb (Day 12, CIA): 0
clinical score right forelimb (Day 12, CIA): 0
clinical score right hind limb (Day 12, CIA): 0
clinical score, score (all limbs) (Day 12, CIA): 0
Overall Clinical Score (Day 12, CIA): 0
Animal paw volume (Day 12, L paw): 1.37 mL and 1.28 mL (2×) and 1.30 mL and 1.29 mL
Animal paw volume (Day 12, R paw): 1.37 mL and 1.27 mL and 1.29 mL
Average animal paw volume (Day 13, L paw): 1.28 mL
Average animal paw volume percent change (%) (Day 13, L paw): -3.57%
Animal paw volume percent change (%) (Day 13, L paw): −8.92% and −5.36% and 0.72% and −3.02% and 0.00% and 4.23% and −2.25% and −5.51%
Average animal paw volume (Day 13, R paw): 1.28 mL
Average animal paw volume percent change (%) (Day 13, R paw): -4.08%
Animal paw volume percent change (%) (Day 13, R paw): −5.99% and −2.32% and 0.36% and −7.43% and −0.78% and −6.95% and −3.69% and 5.86%
Average detailed clinical score, left forelimb (Day 13, CIA): 0
Average detailed clinical score, left hind limb (Day 13, CIA): 0
Average detailed clinical score, right forelimb (Day 13, CIA): 0
Average detailed clinical score, right hind limb (Day 13, CIA): 0
Average detailed clinical score, score (Day 13, CIA): 0
Average overall clinical score (Day 13, CIA): 0
clinical score left forelimb (Day 13, CIA): 0
clinical score left hind limb (Day 13, CIA): 0
clinical score right forelimb (Day 13, CIA): 0
clinical score right hind limb (Day 13, CIA): 0
clinical score, score (all limbs) (Day 13, CIA): 0
Overall Clinical Score (Day 13, CIA): 0
Animal paw volume (Day 13, L paw): 1.40 mL and 1.29 mL (2×) and 1.30 mL and 1.31 mL
Animal paw volume (Day 13, R paw): 1.27 mL and 1.38 mL and 1.28 mL and 1.31 mL and 1.29 mL
Average animal paw volume (Day 14, L paw): 1.27 mL
Average animal paw volume percent change (%) (Day 14, L paw): -4.60%
Animal paw volume percent change (%) (Day 14, L paw): −8.18% and −5.36% and 0.00% and −4.53% and −1.54% and −5.00% and −3.75% and −8.46%
Average animal paw volume percent change (%) (Day 14, R paw): -5.07%
Animal paw volume percent change (%) (Day 14, R paw): −5.62% and −2.70% and 0.00% and −8.92% and −2.33% and −7.72% and −5.17% and −8.06%
Average detailed clinical score, left forelimb (Day 14, CIA): 0
Average detailed clinical score, left hind limb (Day 14, CIA): 0
Average detailed clinical score, right forelimb (Day 14, CIA): 0
Average detailed clinical score, right hind limb (Day 14, CIA): 0
Average detailed clinical score, score (Day 14, CIA): 0
Average overall clinical score (Day 14, CIA): 0
clinical score left forelimb (Day 14, CIA): 0
clinical score left hind limb (Day 14, CIA): 0
clinical score right forelimb (Day 14, CIA): 0
clinical score right hind limb (Day 14, CIA): 0
clinical score, score (all limbs) (Day 14, CIA): 0
Overall Clinical Score (Day 14, CIA): 0
Animal paw volume (Day 14, L paw): 1.39 mL and 1.27 mL and 1.28 mL and 1.29 mL
Animal paw volume (Day 14, R paw): 1.38 mL and 1.29 mL
Average animal paw volume percent change (%) (Day 15, L paw): −5.47%
Animal paw volume percent change (%) (Day 15, L paw): −8.92% and −7.28% and −2.17%
Average animal paw volume percent change (%) (Day 15, R paw): −5.41%
Animal paw volume percent change (%) (Day 15, R paw): −6.74% and −4.25% and 1.45%
Average detailed clinical score, left forelimb (Day 15, CIA): 0
Average detailed clinical score, left hind limb (Day 15, CIA): 0
Average detailed clinical score, right forelimb (Day 15, CIA): 0
Average detailed clinical score, right hind limb (Day 15, CIA): 0
Average detailed clinical score, score (Day 15, CIA): 0
Average overall clinical score (Day 15, CIA): 0
clinical score left forelimb (Day 15, CIA): 0
clinical score left hind limb (Day 15, CIA): 0
clinical score right forelimb (Day 15, CIA): 0
clinical score right hind limb (Day 15, CIA): 0
clinical score, score (all limbs) (Day 15, CIA): 0
Overall Clinical Score (Day 15, CIA): 0
Animal paw volume (Day 15, L paw): 1.36 mL and 1.28 mL and 1.33 mL and 1.27 mL
Animal paw volume (Day 15, R paw): 1.36 mL and 1.27 mL (2×) and 1.32 mL
Average animal paw volume (Day 18, L paw): 1.29 mL
Average animal paw volume percent change (%) (Day 18, L paw): −3.01%
Animal paw volume percent change (%) (Day 18, L paw): −5.20% and −6.51% and 4.33%
Average animal paw volume (Day 18, R paw): 1.29 mL
Average animal paw volume percent change (%) (Day 18, R paw): −3.14%
Animal paw volume percent change (%) (Day 18, R paw): 4.49% and −4.63% and 4.36%
Average detailed clinical score, left forelimb (Day 18, CIA): 0.00
Average detailed clinical score, left hind limb (Day 18, CIA): 0.00
Average detailed clinical score, right forelimb (Day 18, CIA): 0.00
Average detailed clinical score, right hind limb (Day 18, CIA): 0.00
Average detailed clinical score, score (Day 18, CIA): 0.00
Average overall clinical score (Day 18, CIA): 0
Overall Clinical Score (Day 18, CIA): 0
Animal paw volume (Day 18, L paw): 1.28 mL and 1.45 mL and 1.31 mL and 1.29 mL and 1.34 mL and 1.30 mL
Animal paw volume (Day 18, R paw): 1.28 mL and 1.44 mL and 1.31 mL and 1.29 mL (2×) and 1.34 mL
Average animal paw volume (Day 19, L paw): 1.29 mL
Average animal paw volume percent change (%) (Day 19, L paw): −3.33%
Animal paw volume percent change (%) (Day 19, L paw): 5.20% and −6.90%
Average animal paw volume (Day 19, R paw): 1.28 mL
Average animal paw volume percent change (%) (Day 19, R paw): −3.57%
Animal paw volume percent change (%) (Day 19, R paw): −5.24% and −6.18%
Average detailed clinical score, left forelimb (Day 19, CIA): 0.00
Average detailed clinical score, left hind limb (Day 19, CIA): 0.00
Average detailed clinical score, right forelimb (Day 19, CIA): 0.00
Average detailed clinical score, right hind limb (Day 19, CIA): 0.00
Average detailed clinical score, score (Day 19, CIA): 0.00
Average overall clinical score (Day 19, CIA): 0
Overall Clinical Score (Day 19, CIA): 0
Animal paw volume (Day 19, L paw): 1.28 mL (2×) and 1.44 mL and 1.30 mL (2×) and 1.33 mL
Animal paw volume (Day 19, R paw): 1.27 mL (2×) and 1.44 mL and 1.31 mL and 1.32 mL and 1.30 mL
Average animal paw volume (Day 21, L paw): 1.28 mL
Average animal paw volume percent change (%) (Day 21, L paw): −3.56%
Animal paw volume percent change (%) (Day 21, L paw): −6.32% and −6.90%
Average animal paw volume (Day 21, R paw): 1.29 mL
Average animal paw volume percent change (%) (Day 21, R paw): −3.51%
Animal paw volume percent change (%) (Day 21, R paw): −5.99% and −6.18%
Average detailed clinical score, left forelimb (Day 21, CIA): 0.00
Average detailed clinical score, left hind limb (Day 21, CIA): 0.00
Average detailed clinical score, right forelimb (Day 21, CIA): 0.00
Average detailed clinical score, right hind limb (Day 21, CIA): 0.00
Average detailed clinical score, score (Day 21, CIA): 0.00
Average overall clinical score (Day 21, CIA): 0
Overall Clinical Score (Day 21, CIA): 0
Animal paw volume (Day 21, L paw): 1.43 mL and 1.31 mL (2×) and 1.30 mL (2×)
Animal paw volume (Day 21, R paw): 1.43 mL and 1.31 mL and 1.30 mL (2×) and 1.32 mL
clinical score left forelimb [1]: 0
clinical score left hind limb [1]: 0
clinical score right forelimb [1]: 0
clinical score right hind limb [1]: 0
clinical score, score (all limbs) [1]: 0
clinical score left forelimb [2]: 0
clinical score left hind limb [2]: 0
clinical score right forelimb [2]: 0
clinical score right hind limb [2]: 0
clinical score, score (all limbs) [2]: 0
clinical score left forelimb [3]: 0
clinical score left hind limb [3]: 0
clinical score right forelimb [3]: 0
clinical score right hind limb [3]: 0
clinical score, score (all limbs) [3]: 0
